These results are taken from patent US20240350488A1, “METHODS OF TREATING SWI/SNF DEREGULATED CANCERS” (Fred Hutchinson Cancer Center, priority 2023, published 2024).

One experiment concerns PDX2 (ARID1A medium). Description: Pre-clinical trial of patient derived xenograft treated with HHT. In kind it is in vivo, mouse. The following applies: ARID1A medium model; HHT 0.7 mg/kg twice daily by oral gavage. The text has this:
(§1) Arid1a^LoxP/LoxP (Jackson Laboratory), ROSA-LSL-Yfp^KI/KI (Jackson Laboratory), and UBC-Cre^ERT2 (Jackson Laboratory). eEF2K^−/− animals were kindly provided by Alexey G. Ryazanov (Rutgers University). UBC-Cre^ERT2;ROSA-LSL-Yfp^KI/KI;Arid1a^LoxP/LoxP animals (mixed background) were bred to Eef2k^−/− animals (C57BL/6) for one generation to produce progeny heterozygous at all loci (ROSA-LSL-Yfp^KI/+;Arid1a^LoxP/+; eEF2K^+/−) with or without UBC-Cre^ERT2. Heterozygous animals without UBC-Cre^ERT2 were backcrossed once more to ROSA-LSL-Yfp^KI/KI;Arid1a^LoxP/LoxP animals to reintroduce homozygosity at the ARID1A and ROSA-LSL-Yfp, while maintaining heterozygosity at the Eef2k locus (ROSA-LSL-Yfp^KI/KI; Arid1a^LoxP/LoxP; Eef2K^+/−; with and without UBC-Cre^ERT2). […] For survival studies, the body weight of the mouse was recorded and monitored every two days for the duration of the survival trial.
(§2) Tumor pieces (1×1×1 mm) were implanted into the flank of 4-6 weeks old NOD-SCID γ IL-2 mice. Xenografts were measured every 2 days and tumor volume was calculated using the formula (L×W×W)/2, where L is the length of the tumor and W its width. […]

The test system of a further experiment is PDX1 (ARID1A low). The description is as above. In kind it is in vivo, mouse. The following applies: ARID1A low model; HHT 0.7 mg/kg twice daily by oral gavage.
Excerpt: as §1, §2

With `COC(=O)C[C@](O)(CCCC(C)(C)O)C(=O)O[C@@H]1C(OC)=C[C@]23CCCN2CCc2cc4c(cc2[C@H]13)OCO4` [HHT, homoharringtonine], the “decrease in tumor growth” value in the experiment with PDX2 (ARID1A medium) was found to be 35.9%; in the experiment on PDX1 (ARID1A low), 59.3%.
